Test results taken from patent US12209096B2, “Compounds and compositions for inducing chondrogenesis” (NOVARTIS AG, priority 2017, dated 2025).

System: NHACs
Test: calcium flux assay
Type: cell-based, human
Conditions: Homo sapiens; for Emax: read-out: (A) % Efficacy
Protocol: NHACs were plated in 1536 Greiner plate at 2000 cells/well in 4 ul volume. 24 hours later, 4 ul of Calcium 5 dye solution (Hank's Balanced Salt/HEPES buffer containing 5 mM of Probenecid) was then added and incubated for 1 hour at room temperature. Fluorescence readings at excitation wavelength of 470-495 nm and emission wavelength of 515-575 nm were done using FLIPR high-throughput screening system (Molecular Devices, Sunnyvale, CA). The test compound was then added to each well at the indicated dose. Signal was measured prior compound dispense and after using a first interval of 1 second for 60 reads and second interval of 3 second for 20 reads. Data was analyzed using Molecular Devices ScreenWorks® Software.

`COc1cc([C@H]2[C@H]3O[C@H]([C@@H]4C[C@@H]43)[C@@H]2C(=O)Nc2ccc(Cl)c(Cl)c2)ccn1` [Example 118, (1S,2S,4R,5R,6R,7S)—N-(3,4-dichlorophenyl)-7-(2-methoxypyridin-4-yl)-8-oxatricyclo[3.2.1.0^2,4]octane-6-carboxamide] showed an EC50 of 8.2 µM and an Emax of 118%.
For `O=C(Nc1ccc(Cl)c(Cl)c1)[C@H]1[C@@H]2O[C@@H]([C@H]3C[C@H]32)[C@@H]1c1cnc(N2CCOCC2)nc1` [Example 133, (1S,2S,4R,5R,6R,7S)—N-(3,4-dichlorophenyl)-7-(2-morpholinopyrimidin-5-yl)-8-oxatricyclo[3.2.1.0^2,4]octane-6-carboxamide], the EC50 was 25 µM and the Emax was 158%.
For `Nc1ncc([C@H]2[C@H]3O[C@H]([C@@H]4C[C@@H]43)[C@@H]2C(=O)Nc2ccc(Cl)c(Cl)c2)cn1` [Example 132, (1S,2S,4R,5R,6R,7S)-7-(2-aminopyrimidin-5-yl)-N-(3,4-dichlorophenyl)-8-oxatricyclo[3.2.1.0^2,4]octane-6-carboxamide], the EC50 was 18 µM and the Emax was 321%.
`Cc1cc([C@H]2[C@H]3O[C@H]([C@@H]4C[C@@H]43)[C@@H]2C(=O)Nc2ccc(Cl)c(C#N)c2)ccn1` [Example 66, (1S,2S,4R,5R,6R,7S)—N-(4-chloro-3-cyanophenyl)-7-(2-methylpyridin-4-yl)-8-oxatricyclo[3.2.1.0^2,4]octane-6-carboxamide] gave an EC50 of 20 µM and an Emax of 179%.
In the case of `O=C(Nc1cnc(Cl)c(Cl)c1)[C@@H]1[C@@H](c2ccnc(F)c2)[C@H]2O[C@@H]1C[C@@H]2O` (racemic) [Example 90, rac-(1R,2R,3S,4R,5S)—N-(5,6-dichloropyridin-3-yl)-3-(2-fluoropyridin-4-yl)-5-hydroxy-7-oxabicyclo[2.2.1]heptane-2-carboxamide], the EC50 is reported as greater than 50 µM and the Emax is reported as 45%.
Work on `O=C(Nc1cccc(C(F)(F)F)c1)[C@H]1[C@@H]2O[C@@H]([C@H]3C[C@H]32)[C@@H]1c1ccnc(F)c1` [Example 134, (1S,2S,4R,5R,6R,7S)-7-(2-fluoropyridin-4-yl)-N-(3-(trifluoromethyl)phenyl)-8-oxatricyclo[3.2.1.0^2,4]octane-6-carboxamide] yielded an EC50 of 19 µM and an Emax of 249%.
`O=C(Nc1ccc(Cl)c(Cl)c1)[C@H]1[C@H]2O[C@H]([C@@H]3C[C@@H]32)[C@H]1c1cncnc1` (single isomer, unassigned) [Example 28] showed an EC50 of 23 µM and an Emax of 167%.
`O=C(Nc1cnc(Cl)c(Cl)c1)[C@@H]1[C@@H](c2ccncc2)[C@H]2O[C@@H]1C[C@@H]2O` [Example 87, (1R,2R,3S,4R,5S)—N-(5,6-dichloropyridin-3-yl)-5-hydroxy-3-(pyridin-4-yl)-7-oxabicyclo[2.2.1]heptane-2-carboxamide] was tested, and the EC50 was greater than 50 µM and the Emax was 14%.
`Cc1cc([C@H]2[C@H]3O[C@H]([C@@H]4C[C@@H]43)[C@@H]2C(=O)Nc2cccc(C(F)(F)F)c2)ccn1` (racemic) [Example 121, rac-(1S,2S,4R,5R,6R,7S)-7-(2-methylpyridin-4-yl)-N-(3-(trifluoromethyl)phenyl)-8-oxatricyclo[3.2.1.0^2,4]octane-6-carboxamide] was tested, and the EC50 was 26 µM and the Emax was 353%.
With `O=C(Nc1ccc(Cl)c(Cl)c1)[C@H]1[C@@H]2O[C@@H]([C@H]3C[C@H]32)[C@@H]1c1ccnc(F)c1` [Example 119, (1S,2S,4R,5R,6R,7S)—N-(3,4-dichlorophenyl)-7-(2-fluoropyridin-4-yl)-8-oxatricyclo[3.2.1.0^2,4]octane-6-carboxamide] the EC50 was 25 µM and the Emax was 149%.
In the case of `O=C(Nc1ccc(Cl)c(Cl)c1)[C@@H]1[C@@H](c2cncnc2)[C@H]2O[C@@H]1C[C@@H]2O` [Example 141, (1R,2R,3S,4R,5S)—N-(3,4-dichlorophenyl)-5-hydroxy-3-(pyrimidin-5-yl)-7-oxabicyclo[2.2.1]heptane-2-carboxamide], the EC50 is reported as 13 µM and the Emax is reported as 43%.
`Cc1cc([C@H]2[C@H](C(=O)Nc3ccc(Cl)c(Cl)c3)[C@H]3O[C@@H]2C[C@H]3F)ccn1` (single isomer, unassigned) [Example 95] showed an EC50 of 11 µM and an Emax of 113%.
With `Cc1cc([C@@H]2[C@@H]3O[C@@H]([C@H]4C[C@H]43)[C@H]2C(=O)Nc2cccc(C(F)(F)F)c2)ccn1` (single isomer, unassigned) [Example 121b] the EC50 was 22 µM and the Emax was 92%.
With `O=C(Nc1ccc(Cl)c(Cl)c1)[C@@H]1[C@@H]2O[C@@H]([C@H]3C[C@H]32)[C@@H]1c1ccnc(F)c1F` (single isomer, unassigned) [Example 29] the EC50 was greater than 50 µM and the Emax was 6%.
`COc1cc([C@H]2[C@H]3O[C@H]([C@@H]4C[C@@H]43)[C@@H]2C(=O)Nc2cnc(Cl)c(Cl)c2)ccn1` [Example 76, (1S,2S,4R,5R,6R,7S)—N-(5,6-dichloropyridin-3-yl)-7-(2-methoxypyridin-4-yl)-8-oxatricyclo[3.2.1.0^2,4]octane-6-carboxamide] showed an EC50 of 5.8 µM and an Emax of 123%.
In the case of `Cc1cc([C@H]2[C@H]3O[C@H]([C@H](O)[C@@H]3O)[C@@H]2C(=O)Nc2ccnc(C(F)(F)F)c2)ccn1` [Example 161, (1S,2R,3S,4R,5S,6R)-5,6-dihydroxy-3-(2-methylpyridin-4-yl)-N-(2-(trifluoromethyl)pyridin-4-yl)-7-oxabicyclo[2.2.1]heptane-2-carboxamide], the EC50 is reported as greater than 50 µM and the Emax is reported as 29%.
`O=C(Nc1ccc(Cl)c(Cl)c1)[C@H]1[C@@H](c2ccnc(F)c2F)[C@H]2O[C@@H]1C[C@@H]2O` [Example 59, (1R,2S,3S,4R,5S)—N-(3,4-dichlorophenyl)-3-(2,3-difluoropyridin-4-yl)-5-hydroxy-7-oxabicyclo[2.2.1]heptane-2-carboxamide] gave an EC50 of 1.2 µM and an Emax of 254%.
With `COc1ccc(NC(=O)[C@H]2[C@@H](c3ccnc(C)c3)[C@H]3O[C@@H]2C[C@H]3F)cn1` [Example 14, (1R,2S,3S,4R,5R)-5-fluoro-N-(6-methoxypyridin-3-yl)-3-(2-methylpyridin-4-yl)-7-oxabicyclo[2.2.1]heptane-2-carboxamide] the EC50 was 8.3 µM and the Emax was 115%.
`Cc1cc([C@@H]2[C@@H]3O[C@@H]([C@H]4C[C@H]43)[C@@H]2C(=O)Nc2ccc(Cl)c(Cl)c2)ccn1` (single isomer, unassigned) [Example 23b] was tested, and the EC50 was greater than 50 µM and the Emax was 0%.
For `O=C(Nc1ccc(Cl)c(Cl)c1)[C@@H]1[C@@H]2O[C@@H]([C@H]3C[C@H]32)[C@@H]1c1ccnc(F)c1` [Example 25, (1S,2S,4R,5R,6S,7S)-N-(3,4-dichlorophenyl)-7-(2-fluoropyridin-4-yl)-8-oxatricyclo[3.2.1.0^2,4]octane-6-carboxamide], the EC50 was 17 µM and the Emax was 52%.
With `O=C(Nc1ccc(Cl)c(Cl)c1)[C@H]1[C@@H]2O[C@@H]([C@H]3C[C@H]32)[C@@H]1c1cnc(F)nc1` [Example 129, (1S,2S,4R,5R,6R,7S)—N-(3,4-dichlorophenyl)-7-(2-fluoropyrimidin-5-yl)-8-oxatricyclo[3.2.1.0^2,4]octane-6-carboxamide] the EC50 was 10 µM and the Emax was 146%.
Work on `Cc1ncc([C@H]2[C@H]3O[C@H](C[C@@H]3O)[C@H]2C(=O)Nc2ccc(Cl)c(Cl)c2)cn1` [Example 56, (1R,2S,3S,4R,5S)—N-(3,4-dichlorophenyl)-5-hydroxy-3-(2-methylpyrimidin-5-yl)-7-oxabicyclo[2.2.1]heptane-2-carboxamide] yielded an EC50 greater than 50 µM and an Emax of 0%.
`COc1cc([C@H]2[C@H]3O[C@H](C[C@@H]3O)[C@H]2C(=O)Nc2ccc(Cl)c(Cl)c2)ccn1` (racemic) [Example 49, rac-(1R,2S,3S,4R,5S)—N-(3,4-dichlorophenyl)-5-hydroxy-3-(2-methoxypyridin-4-yl)-7-oxabicyclo[2.2.1]heptane-2-carboxamide] showed an EC50 of 11 µM and an Emax of 77%.
In the case of `O=C(Nc1cccc(C(F)(F)F)c1)[C@@H]1[C@@H]2O[C@@H]([C@H]3C[C@H]32)[C@@H]1c1ccncc1` [Example 38, (1S,2S,4R,5R,6S,7S)-7-(pyridin-4-yl)-N-(3-(trifluoromethyl)phenyl)-8-oxatricyclo[3.2.1.0^2,4]octane-6-carboxamide], the EC50 is reported as 9.9 µM and the Emax is reported as 36%.
In the case of `CN[C@@H]1C[C@H]2O[C@@H]1[C@H](c1ccnc(C)c1)[C@H]2C(=O)Nc1ccc(Cl)c(Cl)c1` [Example 167, (1R,2R,3S,4R,5R)—N-(3,4-dichlorophenyl)-5-(methylamino)-3-(2-methylpyridin-4-yl)-7-oxabicyclo[2.2.1]heptane-2-carboxamide], the EC50 is reported as 6.9 µM and the Emax is reported as 83%.
In the case of `Cc1cc([C@H]2[C@H]3O[C@H](C[C@@H]3O)[C@@H]2C(=O)Nc2cc(Cl)c(Cl)cn2)ccn1` [Example 80, (1R,2R,3S,4R,5S)—N-(4,5-dichloropyridin-2-yl)-5-hydroxy-3-(2-methylpyridin-4-yl)-7-oxabicyclo[2.2.1]heptane-2-carboxamide], the EC50 is reported as greater than 50 µM and the Emax is reported as 32%.
With `O=C(Nc1ccc(Cl)c(Cl)c1)[C@H]1[C@@H]2O[C@@H]([C@@H](O)[C@H]2O)[C@@H]1c1ccncc1` [Example 160, (1S,2R,3S,4R,5S,6R)—N-(3,4-dichlorophenyl)-5,6-dihydroxy-3-(pyridin-4-yl)-7-oxabicyclo[2.2.1]heptane-2-carboxamide] the EC50 was greater than 50 µM and the Emax was 32%.
`Cc1cc([C@H]2[C@H]3O[C@H](C[C@@H]3F)[C@@H]2C(=O)Nc2cnc(Cl)c(Cl)c2)ccn1` [Example 109, (1R,2R,3S,4R,5S)—N-(5,6-dichloropyridin-3-yl)-5-fluoro-3-(2-methylpyridin-4-yl)-7-oxabicyclo[2.2.1]heptane-2-carboxamide] showed an EC50 of 28 µM and an Emax of 164%.
With `O=C(Nc1cccc(C(F)(F)F)c1)[C@H]1[C@@H]2O[C@@H](C[C@H]2O)[C@@H]1c1ccncc1` [Example 89, (1S,2R,3S,4S,6R)-6-hydroxy-3-(pyridin-4-yl)-N-(3-(trifluoromethyl)phenyl)-7-oxabicyclo[2.2.1]heptane-2-carboxamide] the EC50 was greater than 50 µM and the Emax was 0%.
